Test results: patent EP0565593B1, “REDUCING PESTICIDAL INTERACTIONS IN CROPS” (priority 1990, dated 1992)
Where “and” joins values, the source holds several entries; their conditions need not be identical. Equal entries are not always repeated. Where two headings read alike, the source gives them in different places.

Legend:
[1] = test system: Velvetleaf (VELE); experiment: whole plant or invertebrate; type: in vivo, Abutilon theophrasti; conditions: in vivo
[2] = test system: velvetleaf (Abutilon theophrasti); experiment: Greenhouse test, combination of Procedures II and III (Examples 1, 2; Tables 1, 2); type: in vivo; conditions: for % Injury VELE: 3 weeks; for Percent Injury VELE: 7 weeks
[3] = test system: Corn; experiment: Multi-crop greenhouse test, soil-applied (Examples 65, 66; Tables 64, 65); type: in vivo; design: inhibition: dose or concentration left out as unconfirmed; conditions: Zea mays, Biocide No. 1 8.96 Kg/Ha alone
Protocol: (§1) Tests according to this invention in various crops indicate widespread application of the invention. In Examples 62-66 below are described tests with a variety of herbicides contacted with COUNTER® 15G in the presence and absence of MON-7400 (Antidote No. 12); MON-13900 (No. 1); MON-4660 (No. 16) and flurazole (No. 16). Those tests were conducted according to Procedures IV or V described above and illustrated further in other foregoing examples. Plants used in all tests were, for crops (as abbreviated in parentheses); cotton (COTT); soybean (SOBE); CORN, grain sorghum (GRSO); wheat (WHEA) and RICE, and the weeds giant foxtail (GIFT) and velvetleaf (VELE). The data in the tables below represent averages of two replications.
(§2) In this test the crops and weeds were planted 1.3 cm deep in 13.7 cm X 27.7 cm pans containing Dupo silt loam soil. The test safeners were applied in acetone solution and COUNTER 15G as dry granules to soil cover layers and incorporated by shaking in a bag. Treated cover layers were placed on seeded pans which were transferred to greenhouse benches and subirrigated. Herbicide was applied POE six (6) days after PPI initiation and observations of plant injury made ten (10) days later; results are shown in Table 61. The herbicide used in this example was BEACON (No. 8).
(§3) In another test in the several crops and weeds used in this test series, the herbicidal component was MON-12000 (No. 1); the other components were the same. the procedure used in this test was the same as that described in Example 62, modified to use a light overhead irrigation (about 0.32 cm/day) during days 4-7 of the test. Table 64 […]

[4] = test system: RICE; experiment: as above; type: in vivo; design: inhibition: dose or concentration left out as unconfirmed; conditions: Oryza sativa, Biocide No. 1 8.96 Kg/Ha alone
Protocol: as §1, §2, §3

[5] = test system: soybean (SOBE); experiment: as above; type: in vivo; design: inhibition: dose or concentration left out as unconfirmed; conditions: Glycine max, Biocide No. 1 8.96 Kg/Ha alone
Protocol: as §1, §2, §3

[6] = test system: Giant foxtail (GIFT); experiment: as above; type: in vivo; design: inhibition: dose or concentration left out as unconfirmed; conditions: Setaria faberi, Biocide No. 1 8.96 Kg/Ha alone
Protocol: as §1, §2, §3

[7] = test system: grain sorghum (GRSO); experiment: as above; type: in vivo; design: inhibition: dose or concentration left out as unconfirmed; conditions: Sorghum, Biocide No. 1 8.96 Kg/Ha alone
Protocol: as §1, §2, §3

[8] = test system: wheat (WHEA); experiment: as above; type: in vivo; design: inhibition: dose or concentration left out as unconfirmed; conditions: Triticum aestivum, Biocide No. 1 8.96 Kg/Ha alone
Protocol: as §1, §2, §3

[9] = test system: Shattercane (SHCA); type: in vivo
[10] = test system: Velvetleaf (VELE); experiment: Multi-crop greenhouse test, soil-applied (Examples 65, 66; Tables 64, 65); type: in vivo, Abutilon theophrasti; design: inhibition: dose or concentration left out as unconfirmed; conditions: Abutilon theophrasti, Biocide No. 1 8.96 Kg/Ha alone
Protocol: as §1, §2, §3

[11] = test system: cotton (COTT); experiment: Multi-crop greenhouse test, biocide, herbicide and safener applied to soil covers (Examples 65, 66; Tables 64, 65); type: in vivo; design: inhibition: dose or concentration left out as unconfirmed; conditions: Gossypium hirsutum, soil, Biocide No. 1 8.96 Kg/Ha alone
Protocol: as §1, §2
In another test in the several crops and weeds used in this test series, the herbicidal component was MON-12000 (No. 1); the other components were the same. the procedure used in this test was the same as that described in Example 62, modified to use a light overhead irrigation (about 0.32 cm/day) during days 4-7 of the test.
In yet another test in this series, XRD-498 (Herbicide No. 21) was used as the herbicidal component in contact with COUNTER 15G in the presence of the above safeners. The various components of the system (biocide, herbicide and safener) were applied concurrently to soil covers of the seeded plants.

[12] = test system: Giant foxtail (GIFT); experiment: whole plant or invertebrate; type: in vivo; conditions: in vivo
[13] = test system: Corn
[14] = test system: Velvetleaf (VELE); type: in vivo, Abutilon theophrasti
[15] = test system: Corn; experiment: Greenhouse test, combination of Procedures II and III: insecticide in-furrow or in cover layer, herbicide and antidote incorporated in cover layer (Examples 1-3, 6; Tables 1-3, 6); type: in vivo; conditions: for % Injury Corn / % Corn Injury PN 3320 / % Corn Injury PN 3377: 3 weeks; for Percent Injury Corn: 7 weeks
[16] = test system: Corn; experiment: Greenhouse test in sterile vs. unsterile soils (chemicals and procedures of Example 6); type: in vivo; conditions: Herbicide No. 1
Protocol: Other greenhouse tests were conducted involving the same chemicals and procedures used in Example 6, to determine any effects from microbial breakdown relative to interactions between the herbicide and insecticides in sterile vs. unsterile soils. […] This finding comports with reports in the trade that organophosphates are known to suffer microbial breakdown due to soil microbes.

[17] = test system: Corn; conditions: in vivo
[18] = test system: Corn; experiment: Greenhouse test Procedure II: herbicide, insecticide and antidote incorporated in cover layer (Example 4; Table 4); type: in vivo; conditions: Insecticide 2 3.36 kg/Ha alone; 3 weeks
Protocol: (§4) Containers were filled and compacted with a fumigated silt loam top soil to a depth of about 1.3 cm from the top of the container. A first container was designated as an untreated control, a second container was designated as a herbicide control, and a third container was designated as a herbicide + antidote test container. Each of the containers was seeded with a crop species. A measured amount of herbicide dispersed or dissolved in acetone was applied to a measured quantity of soil. To this same quantity of soil treated with herbicide, there was added a measured amount of antidote dispersed or dissolved in acetone. The quantity of soil treated with the herbicide and antidote was thoroughly mixed to incorporate the herbicide and antidote in the soil uniformly. The seed bed in the third container of soil was covered with the soil treated with the herbicide and antidote and the container was leveled. For each test series, the seed beds of the first and second containers were likewise covered by soil layers. the cover layer of the first container was not treated with herbicide or antidote.
(§5) This procedure is the same as Procedure I, but modified in the manner that after incorporation of the chemicals (herbicide, antidote and insecticide), the containers with the covered seedbed were treated with an initial overhead irrigation equivalent to 0.6 cm rainfall, then subsequently sub-irrigated as required on greenhouse benches.
(§6) The procedure used in this test was Procedure No. 2 above. Formulations of herbicide, insecticide and antidote were applied via track sprayer sequentially onto cover layers, incorporated into the soil which was spread over seedbeds, then irrigated from above with 0.6 cm water. Observations were made three (3) weeks after treatment.

[19] = test system: VELE (velvetleaf); experiment: Greenhouse test Procedure II (Example 4; Table 4); type: in vivo, Abutilon theophrasti; conditions: Insecticide 2 3.36 kg/Ha alone; 3 weeks
Protocol: as §4, §5, §6

[20] = test system: Corn; experiment: Greenhouse test Procedure I with PPI or POE herbicide and foliar insecticide (Example 5; Table 5); type: in vivo
Protocol: as §4
(§7) Insecticide application was made as described in the tests in the examples below. The containers were then placed on a bench in a greenhouse and sub-irrigated as required for the duration of the test.
(§8) Said herbicide and antidote were sequentially pipetted onto cover layers, which were spread over the seed beds and subirrigated as in Procedure I and allowed to grow to a height of about 10 cm over a period of 11 days. Herbicide No. 1 and Insecticide No. 2 were then sequentially sprayed on the plant foliage. Observations were made three (3) weeks after initial treatment, 10 days after foliar treatment).

[21] = test system: VELE (velvetleaf); experiment: as above; type: in vivo, Abutilon theophrasti
Protocol: as §4, §7, §8

[22] = Ex. 2: Insecticide 1 0.23 Kg/305m alone
[23] = Insecticide 1 0.23 kg/305m alone
[24] = Insecticide 1 (H2O) (crystals scattered in-furrow) alone
[25] = Ex. 12: Biocide No. 1 8.96 Kg/Ha PPI alone, 13 days after planting
[26] = no antidote, […], observed 10 days after herbicide application
[27] = Ex. 6: Insecticide 1 0.23 Kg/305m alone
[28] = Ex. 2: Insecticide 2 3.36 kg/Ha alone
[29] = Table 14: no antidote, Herbicide No. 7 0.84 Kg/Ha POE and/or Biocide No. 2 8.96 Kg/Ha PPI, per label, 13 days after planting
[30] = no antidote, […], 13 days after planting
[31] = Insecticide 2 1.68 Kg/Ha, herbicide cell '-', mode POE (so in the source)
[32] = Ex. 6: Insecticide 2 0.23 Kg/305m alone

CCOP(=S)(OCC)SCSC(C)(C)C [Biocide No. 1, S-[[(1,1-dimethyl-ethyl)thio]-methyl]O,O-diethylphosphorodithioate, reference compound]
% Inhibition VELE [1]: 0%
% Injury VELE [2, 22]: 0%
Percent Injury VELE [2, 23]: 0%
Percent Injury VELE [2, 24]: 0%
inhibition ([3]; Table 64): 0%
inhibition ([3]; Table 65): 0%
inhibition ([4]; Table 64): 10%
inhibition ([4]; Table 65): 0%
inhibition ([5]; Table 64): 0%
inhibition ([5]; Table 65): 0%
inhibition ([6]; Table 64): 30%
inhibition ([6]; Table 65): 30%
inhibition ([7]; Table 64): 0%
inhibition ([7]; Table 65): 0%
inhibition ([8]; Table 64): 0%
inhibition ([8]; Table 65): 0%
% Inhibition SHCA [9, 25]: 25%
% Inhibition SHCA [9, 26]: 20%
inhibition ([10]; Table 64): 0%
inhibition ([10]; Table 65): 0%
inhibition ([11]; Table 64): 0%
inhibition ([11]; Table 65): 0%
% Inhibition GIFT [12]: 10% and 20%
% Inhibition Corn [13, 25]: 5%
effect on corn before application of the herbicide ([13]; in vivo): slight early stunting and leaf malformation
% Inhibition VELE [14, 26]: 15%
% Injury Corn [15, 22]: 3%
% Corn Injury PN 3320 [15, 27]: 0%
% Corn Injury PN 3377 [15, 27]: 0%
Percent Injury Corn [15, 23]: 0%
Percent Injury Corn [15, 24]: 0%
interactions with herbicide in unsterile vs. sterile soil [16]: did not appear to be reduced
% Inhibition Corn [17]: 5% and 0%

CCOP(=S)(OCC)Oc1nc(Cl)c(Cl)cc1Cl [Biocide No. 2, O,O-Diethyl O-(3,5,6-trichloro-2-pyridyl)phosphorothioate, reference compound]
% Injury Corn [18]: 0%
% Injury VELE [2, 28]: 3%
Percent Injury VELE ([2]; Insecticide 2 3.36 kg/ha alone): 0%
% Inhibition SHCA [9, 29]: 0%
% Inhibition SHCA ([9]; in vivo): 30%
% Inhibition SHCA [9, 30]: 25%
% Injury VELE [19]: 0%
% Inhibition GIFT [12]: 45% and 70%
% Injury Corn ([20]; Insecticide 2 1.68 Kg/Ha alone): 0%
% Injury Corn [20, 31]: 35%
% Injury VELE ([21]; Insecticide 2 1.68 Kg/Ha alone): 0%
% Injury VELE [21, 31]: 60%
% Inhibition Corn [13, 29]: 0%
% Inhibition Corn ([13]; in vivo): 0%
% Inhibition Corn [13, 30]: 0%
% Inhibition VELE [14, 29]: 0%
% Inhibition VELE ([14]; in vivo): 0%
% Inhibition VELE [14, 30]: 0%
% Injury Corn [15, 28]: 8%
% Corn Injury PN 3320 [15, 32]: 0%
% Corn Injury PN 3377 [15, 32]: 0%
Percent Injury Corn ([15]; Insecticide 2 3.36 kg/ha alone): 0%
interactions with herbicide in unsterile vs. sterile soil [16]: did not appear to be reduced
% Inhibition Corn [17]: 0%
